We go through two molecules from ChEMBL document CHEMBL1146464, “Two new analogues of the cytotoxic substance BE-52211 from Streptomyces sp” (2004).

Molecules are shown by their SMILES.

A short description of this test: Inhibition of first mitotic cell division in Asterina pectinifera fertilized eggs assessed as minimum effective concentration. The format is functional. The settings on record: Patiria pectinifera, Egg; read-out: MEC.

Take `C=CCc1cc(C)ccc1/C(C)=C\C(C)=C\CCC[C@H](O)CNC(C)=O`: the minimal effective concentration came out at 2.5 µg/mL.
As for `C/C=C\c1cc(C)ccc1/C(C)=C\C(C)=C\CCC[C@H](O)CNC(C)=O`, the minimal effective concentration was found to be 2.5 µg/mL.
